Like-named read-outs stand apart in the source and are kept apart here.
Experiments:
HAase [1] = molecular target: T1, HAase (Homo sapiens, UniProt P38567); test: Compatibility study of HAase and antibiotic in solution: HAase activity; format: biochemical; details: 15 min room temperature; for Final concentration of HAase (units/ml) 150: HAase added to 150 units/ml; for Final concentration of HAase (units/ml) 500: HAase added to 500 units/ml; for Final concentration of HAase (units/ml) 6000: HAase added to 6000 units/ml; for Final concentration of HAase (units/ml) 2000: HAase added to 2000 units/ml; for interference with the activity of HAase: antibiotic and HAase in physiological saline
T1 construct: made in house
T1 sequence (P38567 36-482): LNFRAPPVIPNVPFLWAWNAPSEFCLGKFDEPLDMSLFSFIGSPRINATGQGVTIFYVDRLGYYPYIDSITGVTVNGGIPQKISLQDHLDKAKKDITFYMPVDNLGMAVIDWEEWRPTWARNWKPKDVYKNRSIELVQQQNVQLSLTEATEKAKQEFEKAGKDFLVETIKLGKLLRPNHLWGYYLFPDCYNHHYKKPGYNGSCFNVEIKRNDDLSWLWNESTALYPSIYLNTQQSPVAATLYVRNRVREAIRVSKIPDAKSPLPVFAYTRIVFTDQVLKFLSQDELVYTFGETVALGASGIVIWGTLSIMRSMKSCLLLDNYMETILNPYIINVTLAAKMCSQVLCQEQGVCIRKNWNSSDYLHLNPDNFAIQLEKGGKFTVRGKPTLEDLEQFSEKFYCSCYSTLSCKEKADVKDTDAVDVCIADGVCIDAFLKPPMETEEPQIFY
Procedure: “HAase activity refers to the ability of HAase to catalytically cleave hyaluronic acid. The Chinese Pharmacopoeia provides a method for determining the HAase activity, indirectly by measuring the amount of remaining higher-molecular-weight hyaluronic acid substrate after the enzyme is allowed to catalytically cleave hyaluronic acid at 37° C. for 30 min. A standard reference solution can be used in the assay to determine the relative activity (in units) of any HAase. In-vitro assays for the determination of HAase are known in the art. Exemplary assays include micro-turbidimetric assay described below, which indirectly measures the cleavage of hyaluronic acid by HAase by detecting an insoluble precipitate formed when uncleaved hyaluronic acid binds to serum albumin. The reference standard can be used, for example, to generate a standard curve, so as to determine the activity of the tested HAase in units.
(§1) The compatibility of HAase and an antibiotic was studied by preparing a solution comprising the two substances. A dry Meropenem power for injection was dissolved in physiological saline to give a concentration of 5 mg/ml and 50 mg/ml, and then HAase was added to give a final concentration of 150, 500, 2000, and 6000 units/ml respectively. After preparation, the solution was left to stand at room temperature for 15 min. The appearance of the solution was observed, and the concentration of HAase was determined.
as §1, with “dry Ceftriaxone sodium” for “dry Meropenem”, “of 50” for “of 5”, “and 250” for “and 50”
as §1, with “dry Azithromycin” for “dry Meropenem”, “of 10” for “of 5”, “and 100” for “and 50”
as §1, with “dry Cefradine powder” for “dry Meropenem power”, “of 50” for “of 5”, “and 250” for “and 50”
as §1, with “dry Teicoplanin powder” for “dry Meropenem power”, “of 10” for “of 5”, “and 70” for “and 50”
as §1, with “dry Ceftazidime powder” for “dry Meropenem power”, “of 20” for “of 5”, “and 200” for “and 50”, “min.” for “min. The appearance of the solution was observed, and the concentration of HAase was determined.”

HAase [2] = molecular target: T1, HAase; test: as above; format: biochemical; details: 15 min room temperature
[3] = Pharmacokinetics of model antibiotics in mice: tail vein injection vs subcutaneous administration combined with recombinant human HAase; details: for AUC(0-t): AUClast
Text: (§2) The difference in pharmacokinetics between subcutaneous administration of antibiotics combined with recombinant human HAase and traditional intravenous administration of antibiotics in mice was studied. Ceftriaxone, Ceftazidime, Ertapenem, and Teicoplanin were used as model antibiotics. A total of 48 ICR male mice were used in each antibiotic model, and divided into two groups, each having 24 mice. The two groups include a tail vein injection group, and a subcutaneous administration group of antibiotics combined with recombinant human HAase. The single dose was 100-200 mg/kg, and the drugs was respectively formulated and administered according to the scheme for each group. Blood samples were taken 5 min, 15 min, 30 min, 45 min, 1 hr, 2 hrs, 4 hrs and 8 hrs after administration. The concentration of each model antibiotic in the sample was detected by LC-MS and the pharmacokinetic parameters were calculated.

in vivo = details: male, ICR, mouse
Text: as §2

[4] = male, ICR, mouse, in vivo, sc
Text: as §2

[5] = antibiotic 30 mg/ml in physiological saline
[6] = antibiotic 300 mg/ml in physiological saline
[7] = ICR male mice, in combination with recombinant human HAase for subcutaneous administration, single dose 100-200 mg/kg
[8] = antibiotic 50 mg/ml in physiological saline
[9] = antibiotic 250 mg/ml in physiological saline
[10] = antibiotic 10 mg/ml in physiological saline
[11] = antibiotic 70 mg/ml in physiological saline
[12] = ICR male mice, administration by injection via tail vein, single dose 100-200 mg/kg
[13] = ICR male mice, conventional subcutaneous administration, single dose 100-200 mg/kg
[14] = antibiotic 20 mg/ml in physiological saline
[15] = antibiotic 200 mg/ml in physiological saline

## C[C@@H](O)[C@H]1C(=O)N2C(C(=O)O)=C(S[C@@H]3CN[C@H](C(=O)Nc4cccc(C(=O)O)c4)C3)[C@H](C)[C@H]12 [Ertapenem]
HAase [1]; [5]
  Final concentration of HAase (units/ml) 150: 152 units/ml
  Final concentration of HAase (units/ml) 500: 501 units/ml
  Final concentration of HAase (units/ml) 6000: 6121 units/ml
HAase [1]; [6]
  Final concentration of HAase (units/ml) 500: 511 units/ml
  Final concentration of HAase (units/ml) 2000: 1974 units/ml
  Final concentration of HAase (units/ml) 6000: 5990 units/ml
HAase [1]
  interference with the activity of HAase: not interfere with the activity of HAase
HAase [2]; antibiotic 30 mg/ml in physiological saline, HAase added to 2000 units/ml
  Final concentration of HAase (units/ml) 2000: 2016 units/ml
HAase [2]; antibiotic 300 mg/ml in physiological saline, HAase added to 150 units/ml
  Final concentration of HAase (units/ml) 150: 156 units/ml
[3]; [7]
  Tmax: 15 min
[3]; male, ICR, mouse, blood, iv
  Tmax: 5 min
[3]; male, ICR, mouse, blood, iv, ICR male mice, administration by injection via tail vein, single dose 100-200 mg/kg
  AUC(0-t): 450 µg·h/mL
[3]; male, ICR, mouse, blood, iv, Cmax, ICR male mice, administration by injection via tail vein, single dose 100-200 mg/kg
  Cmax: 368 µg/mL
[3]; male, ICR, mouse, blood, sc
  Tmax: 15 min
[3]; male, ICR, mouse, blood, sc, ICR male mice, conventional subcutaneous administration, single dose 100-200 mg/kg
  AUC(0-t): 442 µg·h/mL
[3]; male, ICR, mouse, blood, sc, ICR male mice, in combination with recombinant human HAase for subcutaneous administration, single dose 100-200 mg/kg
  AUC(0-t): 459 µg·h/mL
[3]; male, ICR, mouse, blood, sc, Cmax, ICR male mice, conventional subcutaneous administration, single dose 100-200 mg/kg
  Cmax: 318 µg/mL
[3]; male, ICR, mouse, blood, sc, Cmax, ICR male mice, in combination with recombinant human HAase for subcutaneous administration, single dose 100-200 mg/kg
  Cmax: 333 µg/mL

## CC1=C(C(=O)O)N2C(=O)[C@@H](NC(=O)[C@H](N)C3=CCC=CC3)[C@H]2SC1 [Cefradine]
HAase [1]; [8]
  Final concentration of HAase (units/ml) 150: 162 units/ml
  Final concentration of HAase (units/ml) 500: 492 units/ml
  Final concentration of HAase (units/ml) 2000: 2009 units/ml
  Final concentration of HAase (units/ml) 6000: 6126 units/ml
HAase [1]; [9]
  Final concentration of HAase (units/ml) 150: 161 units/ml
  Final concentration of HAase (units/ml) 500: 482 units/ml
  Final concentration of HAase (units/ml) 2000: 2080 units/ml
  Final concentration of HAase (units/ml) 6000: 5797 units/ml
HAase [1]
  interference with the activity of HAase: does not interfere with the activity of HAase

## Teicoplanin
HAase [1]; [10]
  Final concentration of HAase (units/ml) 150: 160 units/ml
  Final concentration of HAase (units/ml) 500: 488 units/ml
  Final concentration of HAase (units/ml) 2000: 1972 units/ml
  Final concentration of HAase (units/ml) 6000: 6033 units/ml
HAase [1]; [11]
  Final concentration of HAase (units/ml) 150: 152 units/ml
  Final concentration of HAase (units/ml) 500: 498 units/ml
  Final concentration of HAase (units/ml) 2000: 1961 units/ml
  Final concentration of HAase (units/ml) 6000: 5979 units/ml
HAase [1]
  interference with the activity of HAase: does not interfere with the activity of HAase
[3]; [12]
  AUClast: 195 µg·h/mL
  Cmax: 148 µg/mL
  Tmax: 5 min
[3]; [13]
  AUClast: 201 µg·h/mL
  Cmax: 121 µg/mL
  Tmax: 15 min
[3]; [7]
  AUClast: 210 µg·h/mL
  Cmax: 133 µg/mL
  Tmax: 15 min

## CC(C)(O/N=C(\C(=O)N[C@@H]1C(=O)N2C(C(=O)[O-])=C(C[n+]3ccccc3)CS[C@H]12)c1csc(N)n1)C(=O)O [Ceftazidime]
HAase [1]; [14]
  Final concentration of HAase (units/ml) 150: 145 units/ml
  Final concentration of HAase (units/ml) 500: 501 units/ml
  Final concentration of HAase (units/ml) 2000: 2026 units/ml
  Final concentration of HAase (units/ml) 6000: 6027 units/ml
HAase [1]; [15]
  Final concentration of HAase (units/ml) 150: 148 units/ml
  Final concentration of HAase (units/ml) 500: 488 units/ml
  Final concentration of HAase (units/ml) 2000: 2001 units/ml
  Final concentration of HAase (units/ml) 6000: 5981 units/ml
HAase [1]
  interference with the activity of HAase: does not interfere with the activity of HAase
In vivo; iv
  Tmax: 5 min
In vivo; sc
  Tmax: 15 min

## CO/N=C(\C(=O)N[C@@H]1C(=O)N2C(C(=O)O)=C(CSc3nc(=O)c(=O)[nH]n3C)CS[C@H]12)c1csc(N)n1 [Ceftriaxone]
HAase [1]; [8]
  Final concentration of HAase (units/ml) 150: 162 units/ml
  Final concentration of HAase (units/ml) 500: 510 units/ml
  Final concentration of HAase (units/ml) 2000: 1986 units/ml
  Final concentration of HAase (units/ml) 6000: 6067 units/ml
HAase [1]; [9]
  Final concentration of HAase (units/ml) 150: 162 units/ml
  Final concentration of HAase (units/ml) 500: 507 units/ml
  Final concentration of HAase (units/ml) 2000: 1962 units/ml
  Final concentration of HAase (units/ml) 6000: 6232 units/ml
HAase [1]
  interference with the activity of HAase: does not interfere with the activity of HAase
[4]
  Tmax: 15 min
In vivo; iv
  Tmax: 5 min

Reference: patent publication US20250099557A1, “ANTIBIOTIC PHARMACEUTICAL COMPOSITION CAPABLE OF SUBCUTANEOUS ADMINISTRATION” (SHANGHAI BAO PHARMACEUTICALS CO., LTD., priority 2021, published 2025)
